According to patent publication US12162901B2, “N-acetylated sialic acids and related sialosides” (priority 2016, dated 2024):

Key:
[1] = tested on: BJA-B K20 cells; experiment: Feeding of free sialic acids to BJA-B K20 cells, DMB derivatization and HPLC of membrane sialic acids; conditions: 1 mM for 3 days; sialic acids released with Vibrio cholerae neuraminidase
[2] = tested on: human CD22-Fc/Siglec-2; experiment: Feeding of free sialic acids to BJA-B K20 cells, probing with human CD22-Fc, flow cytometry; assay type: cell-based; conditions: 3 mM, 3 days of feeding
Experimental: Cell Culture and Sugar Supplementation.
Flow Cytometry. Cells were washed with PBS and incubated with 10 μg/mL of PToV probes in PBS with 1% BSA and 10 mM EDTA for 30 minutes on ice. Subsequently, cells were washed with PBS and incubated with PE goat anti-human IgG antibody for 30 minutes on ice. After an additional washing step, the cells were analyzed by FACSCalibur (BD).
After 3 days of feeding, BJA-B K20 cells were probed with human CD22-Fc/Siglec-2 to detect ligands (FIG. 7). […] However, when the cells were grown in the presence of Neu5Ac9NAc, the expression of the CD22 ligand was minimal (FIG. 7C). […] This supports previous observations that human CD22-Fc recognizes α2-6-linked sialosides with Neu5Ac or N-glycolylneuraminic acid (Neu5Gc) as the preferred naturally existing sialic acid form and 9-O-acetyl modification on sialic acid blocks the binding.

[3] = tested on: BJA-B K20 cells; experiment: Feeding of free sialic acids to BJA-B K20 cells, PToV probes, flow cytometry; assay type: cell-based, human
[4] = tested on: PToV-P4-Fc (esterase active); experiment: Treatment of glycan microarray with esterase active PToV, then probe binding; assay type: biochemical, porcine torovirus; conditions: 20 μg/mL PToV-P4-Fc (esterase active), 2 h, RT; FIG. 3B vs FIG. 3A
Experimental: To assure the quality of the printed slides, one or two slides were used for quality control using antibodies, lectins and serum samples with known glycan binding specificity. For glycan array binding, slides were fitted in a multi-well microarray hybridization cassette (AHC4X8S, ArrayIt, Sunnyvale, CA, USA) to divide into 8 subarrays. The subarrays were blocked with Ovalbumin (1% w/v) in PBS (pH 7.4) for 1 h at RT, with gentle shaking. For the esterase activity studies on the array, after removing the blocking solution, slides were first treated with 20 μg/mL PToV-P4-Fc (esterase active) in blocking buffer for 2 h at RT and then washed with PBS in 0.1% Tween 20 and then PBS (10 min/wash with shaking). Subsequently, diluted protein samples in blocking solution with various concentrations were added to each subarray (both esterase treated and non-treated slides). After incubating the protein samples for 2 h at RT with gentle shaking, the slides were washed with PBS in 0.1% Tween 20 and then PBS (10 min/wash with shaking). […] The data were further analyzed with Excel. […] The binding specificity to glycoconjugates for each protein was plotted based on the RFU (Relative Fluorescence Units), average fluorescence value for 4 replicates, versus glycan IDs. The standard deviations were calculated and the error bars were found for each glycan binding. […]

[5] = tested on: porcine torovirus hemagglutinin-esterase (PToV-P4-Fc, esterase inactivated); experiment: Sialoglycan microarray binding of PToV-P4-Fc (esterase inactive); conditions: without esterase treatment (FIG. 3A)
[6] = tested on: human Siglec-9-Fc (hSiglec-9); experiment: Sialoglycan microarray binding of human Siglec-9-Fc; conditions: without esterase treatment (FIG. 3A)
Experimental: The synthesized glycan Neu5Ac9NAcα3Galβ4GlcβProNH2 was used in a glycan library for glycan microarray studies. Glycan microarrays were fabricated using epoxide-derivatized slides (Corning by Thermo Fisher Scientific) and Arrayit SpotBot® Extreme Microarray Spotter. The arrays were printed with Stealth SMP3 microarray spotting pins from ArrayIt (Sunnyvale, CA, USA) generating 100 μm diameter spots. 4 pins were used; with each pin printing 4 replicate spots/well. The glycoconjugates were prepared at 100 μM concentration in an optimized printing buffer (300 mM phosphate buffer, pH 8.4). They were then distributed into a 384-well source plate in 20 μL per well. To monitor printing quality, 4 replicate-wells of human IgG (Jackson ImmunoResearch) was used at 100 μg/ml (in PBS) for each printing-pin. One complete array was printed on each slide (within approx 12 hour/˜28 slides). The humidity level in the arraying chamber was maintained at about 60-65% during printing. Printed slides were left on spotter deck overnight, allowing humidity to drop to ambient levels. Printed glycan microarray slides were blocked by 50° C. pre-warmed blocking solution (0.1 M Tris-HCl, 0.05 M ethanolamine, pH 9.0, 1 h). They were then washed twice with 50° C. pre-warmed water and dried. Slides were packed, vacuum-sealed and stored at RT until used.
To assure the quality of the printed slides, one or two slides were used for quality control using antibodies, lectins and serum samples with known glycan binding specificity. For glycan array binding, slides were fitted in a multi-well microarray hybridization cassette (AHC4X8S, ArrayIt, Sunnyvale, CA, USA) to divide into 8 subarrays. The subarrays were blocked with Ovalbumin (1% w/v) in PBS (pH 7.4) for 1 h at RT, with gentle shaking. […] The data were further analyzed with Excel. […] The binding specificity to glycoconjugates for each protein was plotted based on the RFU (Relative Fluorescence Units), average fluorescence value for 4 replicates, versus glycan IDs. The standard deviations were calculated and the error bars were found for each glycan binding. […]

[7] = De-O-acetylation of 9-OAc glycan during glycan microarray process (DMB derivatization, HPLC); assay type: physicochemical
[8] = substrate: CC(=O)N[C@H]1[C@H]([C@H](O)[C@H](O)CO)O[C@@](O[C@H]2[C@@H](O)[C@@H](CO)O[C@@H](Oc3ccc([N+](=O)[O-])cc3)[C@@H]2O)(C(=O)O)C[C@@H]1O; experiment: Kinetic studies for PmST1 α2-3-sialidase activity (HPLC); assay type: biochemical, Pasteurella multocida; conditions: other: PmST1, apparent, NaOAc buffer pH 5.5, CMP (0.4 mM), 37° C., 10 min
Experimental: (§1) Kinetic studies for PmST1 were performed in duplicates at 37° C. for 10 min. […] The reactions were stopped by adding 20 μL of pre-chilled ethanol. The mixtures were then centrifuged and the supernatants were analyzed by the HPLC system described above for sialidase substrate specificity studies assays. Apparent kinetic parameters were obtained by varying substrate concentrations from 0.1-40 mM (0.1, 0.2, 0.4, 1, 2, 4, 10, 20, and 40 mM) and fitting the data (the average values of duplicate assay results) into the Michaelis-Menten equation using Grafit 5.0.

[9] = substrate: CC(=O)N[C@@H]1C(O)C[C@](OC2C(O)[C@H](Oc3ccc([N+](=O)[O-])cc3)OC(CO)[C@@H]2O)(C(=O)O)OC1[C@H](NC(C)=O)[C@@H](C)O; experiment: as above; assay type: biochemical, Pasteurella multocida; conditions: other: PmST1, apparent, NaOAc buffer pH 5.5, CMP (0.4 mM), 37° C., 10 min
Experimental: as §1

Question: With `CC(=O)N[C@H]1[C@H]([C@H](O)[C@H](O)CO)OC(O)(C(=O)O)C[C@@H]1O` (stereo partly drawn) [Neu5Ac, N-acetylneuraminic acid] as the molecule, how does the “incorporation on the cell membrane (DMB-HPLC)” value [1] read?
Answer: showed incorporation

Question: And the “expression of CD22 ligand on fed cells” value [2]?
Answer: high expression of CD22 ligand

Question: With `CC(=O)N[C@H]1[C@H]([C@H](O)[C@H](O)COC(C)=O)OC(O)(C(=O)O)C[C@@H]1O` (stereo partly drawn) [Neu5,9Ac2, 9-O-acetyl-N-acetylneuraminic acid] as the molecule, how does the “turnover on cell surface” value ([3]; 1 mM for two days, then sugar removed, monitored for 4 days with PToV (esterase inactive) probe) read?
Answer: faster than that of Neu5Ac9NAc

Question: What about the “cell surface incorporation detected with PToV probe” value ([3]; 1 mM free sialic acid, three days of feeding) of the same molecule?
Answer: detected on the cell surface

Question: What about the “incorporation on the cell membrane (DMB-HPLC)” value [1] of the same molecule?
Answer: showed incorporation

Question: What about the “expression of CD22 ligand on fed cells” value [2] of the same molecule?
Answer: between the two

Question: For `CC(=O)NC[C@@H](O)[C@@H](O)[C@@H]1O[C@@](O[C@H]2[C@@H](O)[C@@H](CO)O[C@@H](O[C@H]3[C@H](O)[C@@H](O)[C@H](OCCCN)O[C@@H]3CO)[C@@H]2O)(C(=O)O)C[C@H](O)[C@H]1NC(C)=O` [Neu5Ac9NAcα3Galβ4GlcβProNH2, 3-Aminopropyl O-(5,9-Diacetamido-3,5,9-trideoxy-D-glycero-α-D-galacto-2-nonulopyranosylonic acid)-(2→3)-O-β-D-galactopyranosyl-(1→4)-β-D-glucopyranoside], which “stability of the 9-modification towards esterase active PToV” value [4] is on record?
Answer: stability of 9NAc

Question: And the “binding of PToV on glycan microarray” value [5]?
Answer: prefer binding

Question: And the “binding of hSiglec-9 on glycan microarray” value [6]?
Answer: observable binding

Question: Which “stability of the 9-modification towards esterase active PToV” value [4] does the source give for `CC(=O)N[C@H]1[C@H]([C@H](O)[C@H](O)COC(C)=O)O[C@@](O[C@H]2[C@@H](O)[C@@H](CO)O[C@@H](O[C@H]3[C@H](O)[C@@H](O)[C@H](OCCCN)O[C@@H]3CO)[C@@H]2O)(C(=O)O)C[C@@H]1O` [Neu5,9Ac2α3Galβ4GlcβProNH2] here?
Answer: esterase lability of 9OAc

Question: And the “binding of PToV on glycan microarray” value [5]?
Answer: slightly stronger binding to the 9OAc derivative

Question: And the “binding of hSiglec-9 on glycan microarray” value [6]?
Answer: observable binding

Question: What about the “loss of the OAc group” value ([7]; AUS treatment followed by DMB derivatization at low temperature (FIG. 2B)) of the same molecule?
Answer: 1.5%

Question: What about the “OAc group lost from the 9-position of Neu5Ac or migrated to 7- and 8-positions” value ([7]; release of sialic acids with acetic acid, DMB derivatization, HPLC (FIG. 2A)) of the same molecule?
Answer: ~45%

Question: And the “sialic acid de-O-acetylated” value ([7]; standard blocking condition (ethanolamine in Tris-HCl buffer, pH 9.0))?
Answer: about 5%

Question: What about the OAc group released ([7]; stock solution after three months at −20° C. and a few freeze-thaw cycles) of the same molecule?
Answer: 4%

Question: What about the “loss of OAc” value ([7]; storage in phosphate buffer (pH 8.4) at room temperature) of the same molecule?
Answer: about 3%

Question: With `CC(=O)N[C@H]1[C@H]([C@H](O)[C@H](O)CO)O[C@@](O[C@H]2[C@@H](O)[C@@H](CO)O[C@@H](O[C@H]3[C@H](O)[C@@H](O)[C@H](OCCCN)O[C@@H]3CO)[C@@H]2O)(C(=O)O)C[C@@H]1O` [Neu5Acα3Galβ4GlcβProNH2] as the molecule, how does the “binding of hSiglec-9 on glycan microarray” value [6] read?
Answer: prefers binding

B1: PmST1 (α2-3-sialidase activity) (Pasteurella multocida) (protein)
chain: KTITLYLDPASLPALNQLMDFTQNNEDKTHPRIFGLSRFKIPDNIITQYQNIHFVELKDNRPTEALFTILDQYPGNIELNIHLNIAHSVQLIRPILAYRFKHLDRVSIQQLNLYDDGSMEYVDLEKEENKDISAEIKQAEKQLSHYLLTGKIKFDNPTIARYVWQSAFPVKYHFLSTDYFEKAEFLQPLKEYLAENYQKMDWTAYQQLTPEQQAFYLTLVGFNDEVKQSLEVQQAKFIFTGTTTWEGNTDVREYYAQQQLNLLNHFTQAEGDLFIGDHYKIYFKGHPRGGEINDYILNNAKNITNIPANISFEVLMMTGLLPDKVGGVASSLYFSLPKEKISHIIFTSNKQVKSKEDALNNPYVKVMRRLGIIDESQVIFWDSLKQL
Question: For B1, which Km [8] is on record?
Answer: 4.73 ± 0.31 mM

Question: What about the kcat [8] of the same molecule?
Answer: 9.26 ± 0.185 s⁻¹

Question: And the kcat/Km [8]?
Answer: 1950 M⁻¹ s⁻¹

Question: And the Km [9]?
Answer: 17.38 ± 0.70 mM

Question: What about the kcat [9] of the same molecule?
Answer: 1.16 ± 0.0217 s⁻¹

Question: What about the kcat/Km [9] of the same molecule?
Answer: 66.7 M⁻¹ s⁻¹
